Laboratory results taken from patent US20260297060A1, “COMPOUNDS FOR THE DEGRADATION OF MUTANT BRAF” (C4 THERAPEUTICS, INC., priority 2023, published 2026).
Read-outs that look alike come from different tables or passages of the source.

Target: T1, BRAF V600E (Homo sapiens, UniProt P15056+Q96SW2, V600E)
T1 construct: knock-in of the HiBiT tag to the endogenous BRAF V600E locus; host or cells: A375.10 (A375 clonal line, CRISPR HiBiT knock-in at the endogenous BRAF V600E locus)
Experiment: BRAF V600E HiBiT Degradation Assay
Format: cell-based
Summary of the method: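 Endogenous HiBiT knock-in on BRAF V600E in A375 cells (clone A375.10); 11-point half-log series, top 10 μM, 2, 6 or 24 h at 37° C. Lytic HiBiT luminescence, background-subtracted, normalized to DMSO; 4-parameter fit gives DC50, Emax (residual protein) and IP (inflection point).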

[1] = A375.10 cells, BRAF V600E, 2 hours, inflection point, read-out: HiBiT-Degradation A375.10 BRAF 2 hours IP
[2] = A375.10 cells, BRAF V600E, 2 hours, read-out: HiBiT-Degradation A375.10 BRAF 2 hours DC50
[3] = A375.10 cells, BRAF V600E, 2 hours, residual protein remaining, read-out: HiBiT-Degradation A375.10 BRAF 2 hours Emax
[4] = A375.10 cells, BRAF V600E, 6 hours, inflection point, read-out: HiBiT-Degradation A375.10 BRAF 6 hours IP
[5] = A375.10 cells, BRAF V600E, 6 hours, read-out: HiBiT-Degradation A375.10 BRAF 6 hours DC50
[6] = A375.10 cells, BRAF V600E, 6 hours, residual protein remaining, read-out: HiBiT-Degradation A375.10 BRAF 6 hours Emax
[7] = A375.10 cells, HiBiT, BRAF V600E, 24 hours, read-out: HiBiT-Degradation A375.10 BRAF 24 hours DC50
[8] = A375.10 cells, HiBiT, BRAF V600E, 24 hours, read-out: HiBiT-Degradation A375.10 BRAF 24 hours Emax
[9] = A375.10 cells, HiBiT, BRAF V600E, 24 hours, read-out: HiBiT-Degradation A375.10 BRAF 24 hours IP
[10] = read-out: HiBiT-Degradation A375.10 BRAF 2 hours Emax, A375.10 cells, BRAF V600E, 2 hours, residual protein remaining

T1 sequence (P15056 whole entry V600E): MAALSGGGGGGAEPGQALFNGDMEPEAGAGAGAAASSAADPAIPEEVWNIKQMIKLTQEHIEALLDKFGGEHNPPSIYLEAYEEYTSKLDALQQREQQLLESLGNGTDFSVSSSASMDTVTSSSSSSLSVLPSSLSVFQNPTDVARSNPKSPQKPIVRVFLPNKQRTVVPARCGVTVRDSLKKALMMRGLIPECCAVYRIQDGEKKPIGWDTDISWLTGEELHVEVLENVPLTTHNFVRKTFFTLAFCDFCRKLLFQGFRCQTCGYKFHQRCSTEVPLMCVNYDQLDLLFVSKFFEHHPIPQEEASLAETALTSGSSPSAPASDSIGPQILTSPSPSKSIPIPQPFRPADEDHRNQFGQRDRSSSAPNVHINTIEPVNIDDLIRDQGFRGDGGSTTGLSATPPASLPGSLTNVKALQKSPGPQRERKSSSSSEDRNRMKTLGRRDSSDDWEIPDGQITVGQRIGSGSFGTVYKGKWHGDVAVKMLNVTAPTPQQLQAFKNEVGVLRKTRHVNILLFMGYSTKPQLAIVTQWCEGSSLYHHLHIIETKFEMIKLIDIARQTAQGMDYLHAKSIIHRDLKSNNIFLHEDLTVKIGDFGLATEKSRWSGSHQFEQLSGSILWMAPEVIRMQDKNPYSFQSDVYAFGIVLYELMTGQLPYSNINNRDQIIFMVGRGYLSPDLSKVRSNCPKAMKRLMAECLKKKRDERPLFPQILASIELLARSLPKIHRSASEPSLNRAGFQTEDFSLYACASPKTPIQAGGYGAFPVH
T1 sequence (Q96SW2 whole entry): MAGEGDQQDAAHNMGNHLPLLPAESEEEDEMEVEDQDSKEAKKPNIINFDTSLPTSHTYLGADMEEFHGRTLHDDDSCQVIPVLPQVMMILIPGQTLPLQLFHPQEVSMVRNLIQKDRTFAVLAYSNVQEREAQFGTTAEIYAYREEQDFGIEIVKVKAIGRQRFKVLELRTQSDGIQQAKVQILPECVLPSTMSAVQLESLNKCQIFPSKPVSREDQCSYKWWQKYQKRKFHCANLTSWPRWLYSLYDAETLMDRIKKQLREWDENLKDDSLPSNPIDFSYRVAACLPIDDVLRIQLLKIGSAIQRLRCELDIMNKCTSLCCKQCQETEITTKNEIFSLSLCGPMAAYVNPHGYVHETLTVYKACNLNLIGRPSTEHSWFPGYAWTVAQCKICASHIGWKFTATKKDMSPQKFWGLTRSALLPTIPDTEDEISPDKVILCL
T1 sequence (Q16531 whole entry partner): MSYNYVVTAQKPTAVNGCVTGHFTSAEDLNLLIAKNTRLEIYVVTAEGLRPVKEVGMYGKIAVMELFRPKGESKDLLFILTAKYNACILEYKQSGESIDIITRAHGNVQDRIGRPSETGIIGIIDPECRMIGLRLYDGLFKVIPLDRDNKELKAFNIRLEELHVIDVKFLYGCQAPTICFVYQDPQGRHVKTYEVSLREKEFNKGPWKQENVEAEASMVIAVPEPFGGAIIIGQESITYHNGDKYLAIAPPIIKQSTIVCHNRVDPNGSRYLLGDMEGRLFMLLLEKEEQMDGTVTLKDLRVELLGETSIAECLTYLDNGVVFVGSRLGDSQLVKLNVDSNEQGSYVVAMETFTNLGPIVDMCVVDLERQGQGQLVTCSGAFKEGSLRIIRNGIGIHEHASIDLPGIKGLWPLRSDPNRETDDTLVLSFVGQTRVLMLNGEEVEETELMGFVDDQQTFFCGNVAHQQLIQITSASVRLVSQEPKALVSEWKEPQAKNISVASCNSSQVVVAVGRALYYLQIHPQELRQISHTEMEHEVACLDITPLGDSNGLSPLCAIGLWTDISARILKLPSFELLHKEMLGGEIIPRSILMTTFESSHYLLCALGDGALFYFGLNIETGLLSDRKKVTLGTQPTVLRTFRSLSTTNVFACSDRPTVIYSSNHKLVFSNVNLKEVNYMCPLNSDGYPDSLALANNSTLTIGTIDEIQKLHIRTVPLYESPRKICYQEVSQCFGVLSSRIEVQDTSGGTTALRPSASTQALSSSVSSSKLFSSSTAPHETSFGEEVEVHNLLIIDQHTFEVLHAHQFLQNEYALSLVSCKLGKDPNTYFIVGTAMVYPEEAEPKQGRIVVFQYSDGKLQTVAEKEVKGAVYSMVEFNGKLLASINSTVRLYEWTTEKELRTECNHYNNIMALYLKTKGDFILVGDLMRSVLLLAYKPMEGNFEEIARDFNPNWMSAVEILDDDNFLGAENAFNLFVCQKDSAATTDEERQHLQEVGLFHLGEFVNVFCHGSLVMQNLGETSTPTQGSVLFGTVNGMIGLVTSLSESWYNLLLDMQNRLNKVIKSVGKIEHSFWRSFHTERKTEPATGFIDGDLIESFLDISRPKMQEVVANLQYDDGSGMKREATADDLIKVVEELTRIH

| SMILES | DC50 [1] | DC50 [2] | Emax [3] | DC50 [4] | DC50 [5] | Emax [6] | DC50 [7] | Emax [8] | DC50 [9] | Emax [10] | HiBiT-Degradation A375.10 BRAF 2 hours Emax |
| --- | --- | --- | --- | --- | --- | --- | --- | --- | --- | --- | --- |
| CO[C@@H]1CCN(S(=O)(=O)Nc2ccc(F)c(Oc3ccc4ncn([C@H]5COC6(CCN(C7CCC(c8cc9c(cc8F)c(N8CCC(=O)NC8=O)nn9C)CC7)CC6)C5)c(=O)c4c3)c2C#N)C1 (single isomer, unassigned) [Compound 100] | < 1 µM | < 1 µM | < 50% | < 1 µM | < 1 µM | < 50% | < 1 µM | < 50% | < 1 µM |  |  |
| CO[C@@H]1CCN(S(=O)(=O)Nc2ccc(F)c(Oc3ccc4ncn(C5CC6(CCN(C7CCC(c8cc9c(cc8F)c(N8CCC(=O)NC8=O)nn9C)CC7)CC6)C5)c(=O)c4c3)c2C#N)C1 (single isomer, unassigned) [Compound 101] | < 1 µM | < 1 µM | < 50% | < 1 µM | < 1 µM | < 50% | < 1 µM | < 50% | < 1 µM |  |  |
| CO[C@H]1CCN(S(=O)(=O)Nc2ccc(F)c(Oc3ccc4ncn(C5CC6(CCN(C7CCC(c8cc9c(cc8F)c(N8CCC(=O)NC8=O)nn9C)CC7)CC6)C5)c(=O)c4c3)c2C#N)C1 (single isomer, unassigned) [Compound 103] | < 1 µM | < 1 µM | < 50% | < 1 µM | < 1 µM | < 50% | < 1 µM | < 50% | < 1 µM |  |  |
| CO[C@@H]1CCN(S(=O)(=O)Nc2ccc(F)c(Oc3ccc4ncn([C@H]5COC6(CCN(C7CCC(c8ccc(NC9CCC(=O)NC9=O)cc8F)CC7)CC6)C5)c(=O)c4c3)c2C#N)C1 (single isomer, unassigned) [Compound 109] | < 1 µM | < 1 µM | < 50% | < 1 µM | < 1 µM | < 50% | < 1 µM | < 50% | < 1 µM |  |  |
| CCN(C)S(=O)(=O)Nc1ccc(F)c(Oc2ccc3ncc(OC4CCN(C5CCC(c6ccc(NC7CCC(=O)NC7=O)cc6F)CC5)CC4)nc3c2)c1C#N (single isomer, unassigned) [Compound 110, 7-[2-cyano-3-[[ethyl(methyl)sulfamoyl]amino]-6-fluoro-phenoxy]-2-[[1-[4-[4-[(2,6-dioxo-3-piperidyl)amino]-2-fluoro-phenyl]cyclohexyl]-4-piperidyl]oxy]quinoxaline] | < 1 µM | < 1 µM | 50 to 90% | < 1 µM | < 1 µM | < 50% | < 1 µM | < 50% | < 1 µM |  |  |
| Cn1nc(N2CCC(=O)NC2=O)c2cc(F)c(C3CCC(N4CCC5(CC4)C[C@@H](n4cnc6ccc(Oc7c(F)ccc(NS(=O)(=O)C8CCCC8)c7C#N)cc6c4=O)CO5)CC3)cc21 (single isomer, unassigned) [Compound 113] | < 1 µM | < 1 µM | < 50% | < 1 µM | < 1 µM | < 50% | < 1 µM | < 50% | < 1 µM |  |  |
| CO[C@H]1CCN(S(=O)(=O)Nc2ccc(F)c(Oc3ccc4ncn([C@H]5COC6(CCN(C7CCC(c8cc9c(cc8F)c(N8CCC(=O)NC8=O)nn9C)CC7)CC6)C5)c(=O)c4c3)c2C#N)C1 (single isomer, unassigned) [Compound 115] | < 1 µM | < 1 µM | < 50% | < 1 µM | < 1 µM | < 50% | < 1 µM | < 50% | < 1 µM |  |  |

The next lines start with the values.

| DC50 [1] | DC50 [2] | Emax [3] | DC50 [4] | DC50 [5] | Emax [6] | DC50 [7] | Emax [8] | DC50 [9] | Emax [10] | HiBiT-Degradation A375.10 BRAF 2 hours Emax | SMILES |
| --- | --- | --- | --- | --- | --- | --- | --- | --- | --- | --- | --- |
| < 1 µM | < 1 µM | 50 to 90% | < 1 µM | < 1 µM | < 50% | < 1 µM | < 50% | < 1 µM |  |  | CN(CCO)S(=O)(=O)Nc1ccc(F)c(Oc2ccc3ncn(C4CC5(CCN(C6CCC(c7cc8c(cc7F)c(N7CCC(=O)NC7=O)nn8C)CC6)CC5)C4)c(=O)c3c2)c1C#N (single isomer, unassigned) [Compound 81, 6-[2-cyano-6-fluoro-3-[[2-hydroxyethyl(methyl)sulfamoyl]amino]phenoxy]-3-[7-[4-[3-(2,4-dioxohexahydropyrimidin-1-yl)-5-fluoro-1-methyl-indazol-6-yl]cyclohexyl]-7-azaspiro[3.5]nonan-2-yl]-4-oxo-quinazoline] |
| < 1 µM | < 1 µM |  | < 1 µM | < 1 µM | < 50% | < 1 µM | < 50% | < 1 µM | < 50% |  | CCN(C)S(=O)(=O)Nc1ccc(F)c(Oc2ccc3ncn(C4CC5(CCN(C6CCC(c7cc8c(cc7F)c(N7CCC(=O)NC7=O)nn8C)CC6F)CC5)C4)c(=O)c3c2)c1C#N (single isomer, unassigned) [Compound 83, 6-[2-cyano-3-[[ethyl(methyl)sulfamoyl]amino]-6-fluoro-phenoxy]-3-[7-[4-[3-(2,4-dioxohexahydropyrimidin-1-yl)-5-fluoro-1-methyl-indazol-6-yl]-2-fluoro-cyclohexyl]-7-azaspiro[3.5]nonan-2-yl]-4-oxo-quinazoline] |
| < 1 µM | < 1 µM |  |  |  |  |  |  |  |  | *** (<=50%) | CCN(C)S(=O)(=O)Nc1ccc(F)c(Oc2ccc3ncn(C4CC5(CCN(C6CCC(c7cc8c(cc7F)c(N7CCC(=O)NC7=O)nn8C)CC6F)CC5)C4)c(=O)c3c2)c1C#N (single isomer, unassigned) [Compound 85] |
| < 1 µM | < 1 µM |  |  |  |  |  |  |  |  | *** (<=50%) | CCN(C)S(=O)(=O)Nc1ccc(F)c(Oc2ccc3ncn(C4CC5(CCN(C6CCC(c7cc8c(cc7F)c(N7CCC(=O)NC7=O)nn8C)CC6F)CC5)C4)c(=O)c3c2)c1C#N (single isomer, unassigned) [Compound 86] |
| < 1 µM | < 1 µM | < 50% | < 1 µM | < 1 µM | < 50% | < 1 µM | < 50% | < 1 µM |  |  | CC(C)S(=O)(=O)Nc1ccc(F)c(Oc2ccc3ncn([C@H]4COC5(CCN(C6CCC(c7cc8c(cc7F)c(N7CCC(=O)NC7=O)nn8C)CC6)CC5)C4)c(=O)c3c2)c1C#N (single isomer, unassigned) [Compound 87] |
| < 1 µM | < 1 µM | < 50% | < 1 µM | < 1 µM | < 50% | < 1 µM | < 50% | < 1 µM |  |  | CCN(C)S(=O)(=O)Nc1ccc(F)c(Nc2ccc3ncn([C@@H]4COC5(CCN(C6CCC(c7ccc(NC8CCC(=O)NC8=O)cc7F)CC6)CC5)C4)c(=O)c3c2F)c1C#N (single isomer, unassigned) [Compound 90] |
| < 1 µM | < 1 µM | < 50% | < 1 µM | < 1 µM | < 50% | < 1 µM | < 50% | < 1 µM |  |  | CC(C)S(=O)(=O)Nc1ccc(F)c(Oc2ccc3ncn([C@H]4COC5(CCN(C6CCC(c7ccc(NC8CCC(=O)NC8=O)cc7F)CC6)CC5)C4)c(=O)c3c2)c1C#N (single isomer, unassigned) [Compound 92] |
| < 1 µM | < 1 µM |  | < 1 µM | < 1 µM | < 50% | < 1 µM | < 50% | < 1 µM | < 50% |  | Cn1nc(N2CCC(=O)NC2=O)c2cc(F)c(C3CCC(N4CCC5(CC4)CC(n4cnc6ccc(Oc7c(F)ccc(NS(=O)(=O)C8CCCC8)c7C#N)cc6c4=O)C5)CC3)cc21 (single isomer, unassigned) [Compound 93, N-[2-cyano-3-[3-[7-[4-[3-(2,4-dioxohexahydropyrimidin-1-yl)-5-fluoro-1-methyl-indazol-6-yl]cyclohexyl]-7-azaspiro[3.5]nonan-2-yl]-4-oxo-quinazolin-6-yl]oxy-4-fluoro-phenyl]cyclopentanesulfonamide] |
| < 1 µM | < 1 µM | < 50% | < 1 µM | < 1 µM | < 50% | < 1 µM | < 50% | < 1 µM |  |  | CC(C)S(=O)(=O)Nc1ccc(F)c(Oc2ccc3ncn(C4CC5(CCN(C6CCC(c7cc8c(cc7F)c(N7CCC(=O)NC7=O)nn8C)CC6)CC5)C4)c(=O)c3c2)c1C#N (single isomer, unassigned) [Compound 95, N-[2-cyano-3-[3-[7-[4-[3-(2,4-dioxohexahydropyrimidin-1-yl)-5-fluoro-1-methyl-indazol-6-yl]cyclohexyl]-7-azaspiro[3.5]nonan-2-yl]-4-oxo-quinazolin-6-yl]oxy-4-fluoro-phenyl]propane-2-sulfonamide] |
